In ChEMBL document CHEMBL3885881, “DrugMatrix”:

Species on record: Rattus norvegicus
Test: DrugMatrix - Regimen: Daily Repeat
Assay type: toxicity, organism-based, Sprague-Dawley
Set-up: regimen Daily Repeat, gender Male, age 6-8 weeks
Details: in vivo, iv, […], vehicle 100 % SALINE; for ALANINE AMINOTRANSFERASE / ALBUMIN / ALKALINE PHOSPHATASE / ASPARTATE AMINOTRANSFERASE / BLOOD UREA NITROGEN / CARBON DIOXIDE / CHLORIDE / CHOLESTEROL / CREATINE PHOSPHOKINASE / CREATININE / GLUCOSE / LACTATE DEHYDROGENASE / LIPASE / PHOSPHORUS / POTASSIUM / SODIUM / TOTAL BILIRUBIN / TOTAL PROTEIN / URIC ACID: tissue Plasma; for ABSOLUTE BASOPHIL / ABSOLUTE EOSINOPHIL / ABSOLUTE LYMPHOCYTE / ABSOLUTE MONOCYTE / ABSOLUTE SEGMENTED NEUTROPHIL / BASOPHIL / EOSINOPHIL / ERYTHROCYTE COUNT / HEMATOCRIT / HEMOGLOBIN / LEUKOCYTE COUNT / LYMPHOCYTE / MEAN CORPUSCULAR HEMOGLOBIN / MEAN CORPUSCULAR HEMOGLOBIN CONCENTRATION / MEAN CORPUSCULAR VOLUME / MONOCYTE / NEUTROPHIL / NUCLEATED RED BLOOD CELLS / PLATELET COUNT: tissue Blood
[1] = 72 h, dose 0.24 mg/Kg, dose level Low, time 3 day
[2] = 72 h, dose 2.5 mg/Kg, dose level High, time 3 day
[3] = 120 h, dose 0.24 mg/Kg, dose level Low, time 5 day
[4] = 120 h, dose 2.5 mg/Kg, dose level High, time 5 day

With `CC[C@@]1(O)C(=O)OCc2c1cc1n(c2=O)Cc2cc3ccccc3nc2-1` [CAMPTOTHECIN] the “ALANINE AMINOTRANSFERASE” value [1] was 60 u/L, the ALBUMIN [1] was 4.3 G/DL and the “ALKALINE PHOSPHATASE” value [1] was 408 u/L. For the same compound, the “ASPARTATE AMINOTRANSFERASE” value [1] was 104.67 u/L, the “BLOOD UREA NITROGEN” value [1] was 12.67 mg/dL and the “CARBON DIOXIDE” value [1] was 33.33 mmol/L. For the same compound, the CHLORIDE [1] was 101.33 MEQ/L, the CHOLESTEROL [1] was 75 mg/dL and the “CREATINE PHOSPHOKINASE” value [1] was 727.67 u/L. The CREATININE [1] was 0.15 mg/dL, the GLUCOSE [1] was 138.33 mg/dL and the “LACTATE DEHYDROGENASE” value [1] was 388 u/L. For the same compound, the LIPASE [1] was 11 u/L, the PHOSPHORUS [1] was 11.93 mg/dL and the POTASSIUM [1] was 6.3 MEQ/L. The SODIUM [1] was 145.33 MEQ/L, the “TOTAL BILIRUBIN” value [1] was 0.17 mg/dL and the “TOTAL PROTEIN” value [1] was 5.93 G/DL. The “URIC ACID” value [1] was 1.33 mg/dL, the “ALANINE AMINOTRANSFERASE” value [2] was 37.33 u/L and the ALBUMIN [2] was 4.2 G/DL. The “ALKALINE PHOSPHATASE” value [2] was 430.33 u/L, the “ASPARTATE AMINOTRANSFERASE” value [2] was 79.33 u/L and the “BLOOD UREA NITROGEN” value [2] was 13 mg/dL. For the same compound, the “CARBON DIOXIDE” value [2] was 33 mmol/L, the CHLORIDE [2] was 101.33 MEQ/L and the CHOLESTEROL [2] was 73.67 mg/dL. For the same compound, the “CREATINE PHOSPHOKINASE” value [2] was 318.33 u/L, the CREATININE [2] was 0.16 mg/dL and the GLUCOSE [2] was 153.33 mg/dL. For the same compound, the “LACTATE DEHYDROGENASE” value [2] was 136.33 u/L, the LIPASE [2] was 10.33 u/L and the PHOSPHORUS [2] was 10.83 mg/dL. For the same compound, the POTASSIUM [2] was 5.76 MEQ/L, the SODIUM [2] was 142.73 MEQ/L and the “TOTAL BILIRUBIN” value [2] was 0.17 mg/dL. For the same compound, the “TOTAL PROTEIN” value [2] was 6.1 G/DL, the “URIC ACID” value [2] was 1.63 mg/dL and the “ABSOLUTE BASOPHIL” value [3] was 0 CELLS/uL. The “ABSOLUTE EOSINOPHIL” value [3] was 45.33 CELLS/uL, the “ABSOLUTE LYMPHOCYTE” value [3] was 11856.67 CELLS/uL and the “ABSOLUTE MONOCYTE” value [3] was 131.67 CELLS/uL. The “ABSOLUTE SEGMENTED NEUTROPHIL” value [3] was 1233 CELLS/uL, the BASOPHIL [3] was 0% and the EOSINOPHIL [3] was 0.33%. The “ERYTHROCYTE COUNT” value [3] was 5.71 x10E6/uL, the HEMATOCRIT [3] was 35.9% and the HEMOGLOBIN [3] was 14.03 G/DL. The “LEUKOCYTE COUNT” value [3] was 13.27 x10E3/uL, the LYMPHOCYTE [3] was 89.33% and the “MEAN CORPUSCULAR HEMOGLOBIN” value [3] was 24.57 pg. For the same compound, the “MEAN CORPUSCULAR HEMOGLOBIN CONCENTRATION” value [3] was 39.07 G/DL, the “MEAN CORPUSCULAR VOLUME” value [3] was 62.87 fL and the MONOCYTE [3] was 1%. For the same compound, the NEUTROPHIL [3] was 9.33%, the “NUCLEATED RED BLOOD CELLS” value [3] was 0 /100WBC and the “PLATELET COUNT” value [3] was 1215 x10E3/uL. The “ABSOLUTE BASOPHIL” value [4] was 0 CELLS/uL, the “ABSOLUTE EOSINOPHIL” value [4] was 0 CELLS/uL and the “ABSOLUTE LYMPHOCYTE” value [4] was 7405.33 CELLS/uL. For the same compound, the “ABSOLUTE MONOCYTE” value [4] was 102.67 CELLS/uL, the “ABSOLUTE SEGMENTED NEUTROPHIL” value [4] was 225.33 CELLS/uL and the BASOPHIL [4] was 0%. For the same compound, the EOSINOPHIL [4] was 0%, the “ERYTHROCYTE COUNT” value [4] was 5.35 x10E6/uL and the HEMATOCRIT [4] was 31.67%. The HEMOGLOBIN [4] was 12.13 G/DL, the “LEUKOCYTE COUNT” value [4] was 7.73 x10E3/uL and the LYMPHOCYTE [4] was 95.67%. For the same compound, the “MEAN CORPUSCULAR HEMOGLOBIN” value [4] was 22.77 pg, the “MEAN CORPUSCULAR HEMOGLOBIN CONCENTRATION” value [4] was 38.33 G/DL and the “MEAN CORPUSCULAR VOLUME” value [4] was 59.3 fL. The MONOCYTE [4] was 1.33%, the NEUTROPHIL [4] was 3% and the “NUCLEATED RED BLOOD CELLS” value [4] was 0 /100WBC. The “PLATELET COUNT” value [4] was 1318.33 x10E3/uL, the “ALANINE AMINOTRANSFERASE” value [3] was 43.33 u/L and the ALBUMIN [3] was 4.03 G/DL. For the same compound, the “ALKALINE PHOSPHATASE” value [3] was 352 u/L, the “ASPARTATE AMINOTRANSFERASE” value [3] was 70 u/L and the “BLOOD UREA NITROGEN” value [3] was 14.67 mg/dL. The “CARBON DIOXIDE” value [3] was 29.33 mmol/L, the CHLORIDE [3] was 102 MEQ/L and the CHOLESTEROL [3] was 64.33 mg/dL. For the same compound, the “CREATINE PHOSPHOKINASE” value [3] was 241.67 u/L, the CREATININE [3] was 0.18 mg/dL and the GLUCOSE [3] was 201.67 mg/dL. For the same compound, the “LACTATE DEHYDROGENASE” value [3] was 147.33 u/L, the LIPASE [3] was 10.33 u/L and the PHOSPHORUS [3] was 11.03 mg/dL. The POTASSIUM [3] was 5.31 MEQ/L, the SODIUM [3] was 141.3 MEQ/L and the “TOTAL BILIRUBIN” value [3] was 0.2 mg/dL. For the same compound, the “TOTAL PROTEIN” value [3] was 5.93 G/DL, the “URIC ACID” value [3] was 1.33 mg/dL and the “ALANINE AMINOTRANSFERASE” value [4] was 42.67 u/L. The ALBUMIN [4] was 4.03 G/DL, the “ALKALINE PHOSPHATASE” value [4] was 247 u/L and the “ASPARTATE AMINOTRANSFERASE” value [4] was 101 u/L. The “BLOOD UREA NITROGEN” value [4] was 17 mg/dL, the “CARBON DIOXIDE” value [4] was 22.33 mmol/L and the CHLORIDE [4] was 103.33 MEQ/L. The CHOLESTEROL [4] was 56 mg/dL, the “CREATINE PHOSPHOKINASE” value [4] was 674.67 u/L and the CREATININE [4] was 0.2 mg/dL. The GLUCOSE [4] was 184 mg/dL, the “LACTATE DEHYDROGENASE” value [4] was 581 u/L and the LIPASE [4] was 10.33 u/L. The PHOSPHORUS [4] was 12.4 mg/dL, the POTASSIUM [4] was 6.08 MEQ/L and the SODIUM [4] was 142.1 MEQ/L. For the same compound, the “TOTAL BILIRUBIN” value [4] was 0.13 mg/dL, the “TOTAL PROTEIN” value [4] was 6.03 G/DL and the “URIC ACID” value [4] was 1.8 mg/dL.
